Source: patent publication US10538490B2, “Benzylaminopyridylcyclopropanecarboxylic acids, pharmaceutical compositions and uses thereof” (Boehringer Ingelheim International GmbH, priority 2016, dated 2020)
≈ marks a conversion by molar mass, not a printed value.

What was measured:
[1] = Aqueous solubility in buffer versus acetonitrile/water (1/1), LC-UV; assay type: physicochemical; details: kinetic from dmso stock, buffer pH 2.2, 24 h shaking, 2.5% DMSO, ">" if more than 90% dissolved
Procedure: The aqueous solubility of the compounds of the invention is determined by comparing the amount dissolved in buffer to the amount in an acetonitrile/water (1/1) solution. Starting from a 10 mM DMSO stock solution aliquots are diluted with acetonitrile/water (1/1) or buffer, respectively. After 24 h of shaking, the solutions are filtrated and analyzed by LC-UV. The amount dissolved in buffer is compared to the amount in the acetonitrile solution.
Solubility is usually being measured from 0.001 to 0.125 mg/mL at a DMSO concentration of 2.5%. If more than 90% of the compound is dissolved in buffer, the value is marked with “>”.

[2] = Chemical stability (degradation kinetics) at pH value of ca. 1.2; assay type: physicochemical; details: pH value of ca. 1.2 (acetonitrile/0.1 M aqueous HCl 2:3), 37° C., HPLC
Procedure: Degradation kinetics is used to simulate chemical stability of compounds in the acidic part of the gastro intestinal tract. […] Their application as medical drugs to treat human diseases is therefore less restricted and troublesome.
The chemical stability of the compounds of the invention at pH value of ca. 1.2 is determined as follows:
Compound is dissolved in an HPLC vial either in a mixture of acetonitrile/0.1 M aqueous HCl (2:3; pH ca. 1.2) or in a mixture of acetonitrile/Mcllvaine buffer pH 7.4 (2:3) to get a concentration of approximately 0.25 mg/ml. The vial was then transferred into an HPLC autosampler system and maintained at a temperature of 37° C. A first sample is taken and injected immediately into a standard HPLC system with a UV DAD detector. Further samples are injected after 2, 4, 6, 8 and 10 hours. Amount of degraded compound is measured by determining the recovery rate of compound [%] for each injection using an HPLC standard gradient method. Therefore the peak area of the main peak for the first injection (AUt0) is determined and set as 100%. Peak area of the main peak is determined also for the further injections (AUtn, n=2, 4, 6, 8, 10) and expressed as fraction of […] [%].

[3] = molecular target: human GPR40 receptor (Homo sapiens, UniProt O14842); assay: IP1 accumulation measurements using the IPOne assay system; assay type: cell-based; details: 1321N1 cells stably expressing human GPR40 receptor, stimulation 1 h at 37° C.
Sequence of human GPR40 receptor (O14842 whole entry): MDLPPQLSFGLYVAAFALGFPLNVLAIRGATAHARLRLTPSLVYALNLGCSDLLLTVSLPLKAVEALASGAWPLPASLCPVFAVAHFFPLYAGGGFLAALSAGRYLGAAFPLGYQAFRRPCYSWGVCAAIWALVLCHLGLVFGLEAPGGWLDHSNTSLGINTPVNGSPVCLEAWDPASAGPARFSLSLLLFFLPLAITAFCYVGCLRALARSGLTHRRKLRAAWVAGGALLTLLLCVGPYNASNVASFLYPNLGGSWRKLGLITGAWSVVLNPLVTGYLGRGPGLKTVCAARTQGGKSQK
Procedure: IP1 accumulation measurements using the IPOne assay system—1321N1 cells stably expressing human GPR40 receptor (Euroscreen, Belgium) are seeded 24 h before the assay in white 384-well plates in culture medium containing 10% FCS, 1% Na-Pyruvate and 400 μg/mL G418. IPi is assayed according to the manufacturer's description (Cisbio Bioassays, France). In brief, the assay is started by substitution of the culture medium by stimulation buffer (Hepes 10 mM, CaCl2 1 mM, MgCl2 0.5 mM, KCl 4.2 mM, NaCl 146 mM, glucose 5.5 mM and LiCl 50 mM, pH 7.4). Cells are stimulated for 1 h at 37° C., 5% CO2 by addition of the compounds that are diluted in stimulation buffer containing LiCl. Assays are stopped by adding HTRF-conjugates (IP1-d2 and Anti-IP1 cryptate Tb) and lysis buffer, provided by the manufacturer. After an incubation time of 1 h at room temperature plates are measured using an EnVision™, Perkin Elmer. The obtained fluorescence ratios at 665/615 […] are then used to calculate the pEC50 values using Assay Explorer 3.3 Software (Accelrys, Inc.) by interpolation using an IP1 reference curve and subsequent sigmoidal curve fitting allowing for a variable hill slope.

CC(C)(O)CCOc1ccc(-c2cc(CNc3ccc([C@H]4C[C@@H]4C(=O)O)cn3)ccc2C(F)(F)F)cc1 [Example 4, (1S,2S)-2-(6-{[4′-(3-Hydroxy-3-methyl-butoxy)-6-trifluoromethyl-biphenyl-3-ylmethyl]-amino}-pyridin-3-yl)-cyclopropanecarboxylic Acid]
solubility at 24 h [1]: 92 µg/mL (≈ 179 µM) | Amount of degradation after 2 h [2]: <0.5% | EC50 [3]: 15 nM

Cc1cccc(C)c1-c1ccc(F)c(CNc2ccc([C@H]3C[C@@H]3C(=O)O)cn2)c1 [Example 18]
solubility at 24 h [1]: > 120 µg/mL | Amount of degradation after 2 h [2]: <0.5% | EC50 [3]: 131 nM

Cc1cc(-c2nnn(C)n2)cc(C)c1-c1ccc(F)c(CNc2ccc([C@H]3C[C@@H]3C(=O)O)cn2)c1 [Example 48]
solubility at 24 h [1]: 102 µg/mL (≈ 216 µM) | Amount of degradation after 2 h [2]: <0.5% | EC50 [3]: 20 nM

Cc1cc(OCCCS(C)(=O)=O)cc(C)c1-c1ccc(F)c2c1CC[C@H]2Oc1ccc([C@H]2C[C@@H]2C(=O)O)cc1 [WO 2013/178575 Example 11]
Amount of degradation after 2 h [2]: 5%

Cc1cc(C(=O)NCC(C)(C)O)cc(C)c1-c1ccc(F)c2c1CC[C@H]2Oc1ccc([C@H]2C[C@@H]2C(=O)O)cc1 [WO 2013/178575 Example 15, reference compound]
solubility at 24 h [1]: < 1 µg/mL | Amount of degradation after 2 h [2]: 3%

Cc1cc(OCCC(C)(C)O)cc(C)c1-c1ccc(F)c2c1CC[C@H]2Oc1ccc([C@H]2C[C@@H]2C(=O)O)cc1 [WO 2013/178575 Example 17, reference compound]
solubility at 24 h [1]: < 1 µg/mL | Amount of degradation after 2 h [2]: 8%

Cc1cccc(C)c1-c1ccc(F)c2c1CC[C@H]2Oc1ccc(C2CC2C(=O)O)cc1 (some centres unmarked) [WO 2013/178575 Example 33]
Amount of degradation after 2 h [2]: 8%

Cc1c(C#N)cccc1-c1ccc(F)c2c1CC[C@H]2Oc1ccc([C@H]2C[C@@H]2C(=O)O)cc1 [WO 2013/178575 Example 54, reference compound]
solubility at 24 h [1]: < 1 µg/mL | Amount of degradation after 2 h [2]: 2.5%
